Measured values from patent US20130266663A1, “SOX9 INHIBITORS” (priority 2010, published 2013).

Columns and labels:
SOX9 target genes [1] = assay: Quantitative RT-PCR of SOX9 target genes after SCI, intrathecal miniosmotic pump delivery for 7 days; format: in vivo, rat; details: spinal cord-injured rats, 0.35 mg/ml or 3.5 mg/ml
Method: To assess, the intrathecal miniosmotic pump as a means of compound delivery, spinal cord-injured rats received either saline, 0.35 mg/ml or 3.5 mg/ml of chlorpromazine for 7 days. At 7 days the levels of SOX9 target gene expression including GFAP, Brevican, XT-1 and Hapln1 were measured by quantitative RT-PCR as previously described.

MCAO mice = assay: Grip testing after MCAO (stroke model); format: in vivo; details: mouse MCAO, 5 mg/kg daily i.p. from 24 hours post-injury
Method: At 3 days and 7 days post-injury, recovery of the damaged side was assessed by grip testing. […] This provides evidence that chemical compounds that modulate SOX9 activity can improve behavioral function following general CNS damage including that associated with spinal cord injury and stroke.
Stroke injury model: A standard MCAO mouse model will be utilized. Briefly, an 11 mm length of monofilament nylon coated with Poly-L-lysine is passed into the common carotid artery, through the internal carotid artery, and past the middle cerebral artery (MCA), effectively occluding the MCA. The loop of suture is tightened down and the mouse allowed to recover in a warm cage. Effective cerebral blood flow reduction is confirmed by a laser-Doppler flowmetry probe (reductions of 70% or better indicating successful occlusion). After 30 minutes for a moderate injury or 60 minutes for a severe injury, the mouse is re-anesthetized and the nylon suture removed allowing reperfusion.

SOX9 target genes [2] = assay: Q-PCR of SOX9 target gene expression in aged primary astrocyte cultures; format: cell-based, rat
Source text: Another approach to modulating the capacity of calmodulin to transport SOX9 into the nucleus is via competitive inhibition of calmodulin binding. To that effect, a novel peptide (SOX-CAL) was generated to specifically block the calmodulin SOX9 binding site. The SOX-CAL peptide sequence, […] (SEQ ID NO.8), corresponds with the calmodulin binding sequence in SOX9. To ensure the peptide's entry into the cell, it was synthesized fused to the protein transduction domain of the HIV-1 Tat protein. […] This analysis was performed in contrast to the control FLAG-TAT peptide.
Antagonists to TRPV4 cation channel were tested to determine their ability to decrease the activity of SOX9 in astrocytes. The effect of TRPV4 antagonists on SOX9 function was evaluated in cultured rat astrocytes transfected with pGL4.1 4×48 Col2a1. The day after transfection, cells were treated for 24 h with 2-APB (100 μM) or ruthenium red (10 μM) before the luciferase assay was performed. The broad-spectrum transient receptor potential (TRP) channel antagonist 2-APB inhibited SOX9 activity by ˜70%, while the vanniloid subfamily-specific TRP antagonist ruthenium red inhibited SOX9 activity by ˜25%. With respect to SOX9 target genes, Q-PCR analysis of aged primary astrocyte cultures was performed to determine the impact of the TRPV4 antagonists on SOX9. Treatment with ruthenium red specifically reduces aggrecan and Col4a expression by 40% and 50%, respectively (FIG. 6B), while 2-APB reduces XT-1, HAPLN1, aggrecan, Col2a, and Col4a by 50%, 70%, 80%, 50%, and 60% respectively (FIG. 6B, C), in rat primary astrocytes after a 48 hour exposure (n=3). […] Based on the role that the TRP channels serve in modulating calcium levels, and therefore calmodulin activity, the effect of the TRP channel blockers on SOX9 activity appears to be indirect.

SOX9 = SOX9 luciferase reporter assay in transfected astrocytes; format: cell-based, rat; details: cultured rat astrocytes, 24 h treatment
Source text: Cultures early after plating bear characteristics of immature and reactive astroctyes associated with acute damage. In this assay, primary astrocytes are transfected with a SOX9 reporter construct that consists of 4 repeats of the SOX9 binding site coupled to the mouse Col2a1 minimal promoter cloned upstream of a luciferase gene in the plasmid pGL4, as previously described in WO 2008/049226. After normalization for transfection efficiency, SOX9 activity can be monitored in transfected astrocytes by luciferase activity. Cells transfected with the SOX9 reporter construct were cultured in the presence and absence of potential inhibitors for 24 hours at which time the cells were lysed and luciferase levels measured. Compounds that reduced the levels of luciferase activity relative to control wells were considered as positive “hits”. In a secondary screen, false positives that cause a reduction in luciferase activity due to effects on cell viability, were eliminated using a cell viability assay (CellTiter-Flour—Promega). Subsequent to secondary screening, the “hits” were evaluated for their affect on SOX9 target gene expression by Q-PCR studies in primary astrocytes.
The utility of calmodulin antagonists (inhibitor) to decrease SOX9 target gene expression was evaluated in cultured rat astrocytes transfected with pGL4.1 4×48 Col2a1 prepared as described in Example 1. This plasmid contains 4-48 bp SOX9-binding sites from the Col2A1 enhancer which promote luciferase reporter gene expression in cells where SOX9 is active i.e. in the nucleus. The day after transfection, cells were treated for 24 h with inhibitor in concentrations as described below and in FIG. 5 before the luciferase assay was performed.
In this example, the potential of compounds that modulate calcium channels to modulate SOX9 activity is tested. The compounds were evaluated in cultured rat astrocytes transfected with pGL4.1 4×48 Col2a1. The day after transfection, cells were treated for 24 h with selected inhibitors before the luciferase assay was performed.
Antagonists to TRPV4 cation channel were tested to determine their ability to decrease the activity of SOX9 in astrocytes. The effect of TRPV4 antagonists on SOX9 function was evaluated in cultured rat astrocytes transfected with pGL4.1 4×48 Col2a1. The day after transfection, cells were treated for 24 h with 2-APB (100 μM) or ruthenium red (10 μM) before the luciferase assay was performed. […] With respect to SOX9 target genes, Q-PCR analysis of aged primary astrocyte cultures was performed to determine the impact of the TRPV4 antagonists on SOX9. […] Collagen IV is a significant scarring extracellular matrix produced by astrocytes and contributing to the inhibitory properties of the glial scar.

CN(C)CCCN1c2ccccc2Sc2ccc(Cl)cc21 [chlorpromazine]
SOX9 target gene expression including GFAP, Brevican, XT-1 and Hapln1 (SOX9 target genes [1]): improved anticipated outcome at 3.5 mg/ml of drug
improvement over saline control in grip testing (MCAO mice; 3 days post injury): approximately 15%
improvement over saline control in grip testing (MCAO mice; 7 days post injury): approximately 20%
expression of C4ST (SOX9 target genes [2]; 20 uM, 48 hours, vs vehicle): significantly reduced
expression of XT1 (SOX9 target genes [2]; 20 uM, 48 hours, vs vehicle): significantly reduced
expression of XT2 (SOX9 target genes [2]; 20 uM, 48 hours, vs vehicle): significantly reduced
SOX9 target genes expression (SOX9 target genes [2]; longer treatments (1 week)): even more profound reductions
concentration at which the decrease in luciferase reporter activity is optimized / maximal (SOX9): 20 µM
luciferase reporter activity (SOX9 activity) (SOX9; various concentrations (FIG. 5)): apparent dose dependent response to limiting luciferase expression
